Laboratory results taken from the supplement of paper PMC10307832.

Columns and labels:
Assay in all cases: relative viability (nuclei count vs DMSO), 5 days (fraction); higher = more cells survive
[1] = compound: C1CNCCC1C2=CC(=NN2)C3=CC=NC=C3
In short: (§1)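 Only plates meeting two conditions passed: control CV below 25% and at least one doubling. Lung cancer cell lines, kept overnight at 37 °C in 1536-well plates, were pinned with five library-drug doses (not always all listed) √10 apart on vehicle-anchored plates and grown 5 days without medium change. A one-step fix, permeabilisation and Hoechst stain preceded 4× imaging and MetaXpress nuclear counting. Viability equals treated-well nuclei divided by vehicle-well nuclei, as the median over plates.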

[2] = compound: C[C@@H](N)c1ccc(C(=O)Nc2ccnc3[nH]ccc23)cc1
In short: as §1

Tanzisertib = compound: O[C@H]1CC[C@H](Nc2ncc3nc(Nc4c(F)cc(F)cc4F)n([C@H]4CCOC4)c3n2)CC1 [Tanzisertib]
In short: as §1

[3] = compound: C[C@@H](N)c1ccc(C(=O)Nc2ccnc3[nH]ccc23)cc1 + C[C@@H](Oc1cc(-c2cnn(C3CCNCC3)c2)cnc1N)c1c(Cl)ccc(F)c1Cl [Crizotinib] (partner 1 µM)
In short: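 A single step with final 0.05% Triton X-100, 1% formaldehyde and 1 ug/ml Hoechst fixed the cells and stained nuclei 5 days after treatment. Lung cancer cell lines in 1536-well plates had been treated by pin tool the day after seeding with one drug alone or a fixed anchor-drug dose plus five library-drug doses (not always all listed) in √10 steps, and nuclei were counted on 4× images. Relative viability is the ratio of nuclei in treated wells to nuclei in vehicle wells, taken as the median of duplicate plates.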

| Cell Line | relative viability ([1]; 0.08 µM) | relative viability ([1]; 0.8 µM) | relative viability ([1]; 2.53 µM) | relative viability ([1]; 8 µM) | relative viability ([2]; 0.04 µM) | relative viability ([2]; 0.1265 µM) | relative viability ([2]; 0.4 µM) | relative viability ([2]; 4 µM) | relative viability (Tanzisertib; 0.08 µM) | relative viability (Tanzisertib; 0.253 µM) | relative viability (Tanzisertib; 0.8 µM) | relative viability (Tanzisertib; 2.53 µM) | relative viability (Tanzisertib; 8 µM) | relative viability ([3]; first compound 0.04 µM) | relative viability ([3]; first compound 0.1265 µM) | relative viability ([3]; first compound 0.4 µM) | relative viability ([3]; first compound 4 µM) | relative viability ([2]; 1.265 µM) | relative viability ([3]; first compound 1.265 µM) |
| --- | --- | --- | --- | --- | --- | --- | --- | --- | --- | --- | --- | --- | --- | --- | --- | --- | --- | --- | --- |
| NCI-H23 | 0.866 | 0.988 | 1.26 | 1.14 | 0.895 | 0.999 | 1.12 | 0.826 | 1.18 | 1.01 | 1.06 | 0.998 | 0.43 | 0.589 | 0.571 | 0.619 | 0.511 |  |  |
| NCI-H322M | 0.93 | 0.923 | 0.92 | 1.02 | 1.14 | 1.12 | 1.14 | 1.25 | 1.06 | 0.969 | 1.02 | 0.919 | 0.867 | 0.881 | 0.944 | 1.09 | 1.08 |  |  |
| NCI-H358 | 0.902 | 0.994 | 1.02 | 0.822 | 0.912 | 0.925 | 0.921 | 0.754 | 1.12 | 0.912 | 0.865 | 0.938 | 0.581 | 0.744 | 0.543 | 0.676 | 0.633 | 0.86 | 0.513 |
| NCI-H441 | 0.908 | 1.12 | 1.06 | 0.912 | 1.05 | 1.15 | 1.31 | 0.827 | 1.09 | 0.888 | 0.93 | 0.887 | 0.891 | 0.807 | 0.764 | 0.749 | 0.565 | 0.906 | 0.948 |
| NCI-H460 | 0.939 | 1.05 | 0.971 | 1.01 | 0.963 | 0.997 | 1.06 | 0.993 | 0.994 | 0.976 | 0.992 | 0.982 | 0.98 | 1.1 | 0.943 | 0.966 | 0.603 | 0.851 | 0.516 |
| NCI-H520 | 0.899 | 0.816 | 0.988 | 1.03 | 1.14 | 1.12 | 0.999 | 1.15 | 1.09 | 0.981 | 1.03 | 0.919 | 0.907 | 0.824 | 0.852 | 0.801 | 0.804 | 1.03 | 1.05 |
| NCI-H596 | 1.02 | 0.995 | 0.983 | 0.959 | 1.06 | 0.905 | 0.907 | 0.967 | 0.927 | 1.05 | 0.893 | 0.914 | 0.818 | 1.04 | 0.899 | 0.934 | 0.93 | 0.815 | 0.809 |
| NCI-H647 | 1.02 | 0.947 | 1 | 0.868 | 0.992 | 0.955 | 0.916 | 0.811 | 1.21 | 0.976 | 0.973 | 1.12 | 0.779 | 1.09 | 0.98 | 1.02 | 0.692 | 0.694 | 0.882 |
| NCI-H650 | 0.946 | 0.933 | 1.08 | 0.998 |  | 0.849 | 0.932 | 0.785 | 0.973 | 1.01 | 0.975 | 1.14 | 0.411 | 0.66 | 0.639 | 0.745 | 0.587 |  |  |
| NCI-H661 | 0.993 | 0.964 | 0.96 | 0.988 | 0.907 | 1.02 | 0.974 | 0.87 | 1.01 | 0.997 | 0.964 | 0.944 | 0.964 | 0.906 | 0.929 | 1.18 | 0.89 | 0.891 | 1.02 |
| NCI-H727 | 0.874 | 0.942 | 1.05 | 1.22 | 1.02 | 1.17 | 1.25 | 1.3 | 0.918 | 0.901 | 1.01 | 0.887 | 0.944 | 1.04 | 1 | 1.21 | 0.842 | 0.932 | 1.19 |
| NCI-H838 | 0.997 | 0.884 | 1.01 | 0.956 | 0.761 | 0.905 | 0.867 | 0.415 | 0.987 | 0.985 | 0.933 | 0.933 | 0.917 | 0.835 | 0.778 | 0.638 | 0.316 | 0.576 | 0.431 |
| NCI-H1299 | 1.04 | 1.05 | 0.978 | 0.976 | 0.967 | 0.985 | 0.963 | 0.862 | 1.06 | 1.03 | 1.01 | 0.998 | 1.08 | 0.905 | 0.911 | 0.845 | 0.713 | 0.955 | 0.845 |
| NCI-H1355 | 0.955 | 0.957 | 1.08 | 0.977 | 0.961 | 1.01 | 1.12 | 0.986 | 1.08 | 0.978 | 1.09 | 0.96 | 0.911 | 1.04 | 1.09 | 1.19 | 0.941 | 0.909 |  |
